# Measured values from ChEMBL document CHEMBL1201862, “PubChem BioAssay data set” (2004).
#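 Five compound concentrations were applied to cells in 96-well plates for 48 hours; endpoints were derived by simple linear interpolation of the resulting dose-response curve. GI50 marks 50% less growth.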 Activity calls are given as the source filed them. No stated cut-off is given here; in the data, active = GI50 up to about 1.1 µM and inactive = higher.
# Key:
# Assay in all cases: DTP human tumour cell line panel, 48 h
# NCI/ADR-RES = system: NCI/ADR-RES
# HCT-116 = system: HCT-116
# SK-OV-3 = system: SK-OV-3
# Malme-3M = system: Malme-3M
# HCT-15 = system: HCT-15
# PC-3 = system: PC-3
# Hs-578T = system: Hs-578T
# NCI-H522 = system: NCI-H522
# HCC 2998 = system: HCC 2998
# SF-268 = system: SF-268
# NCI-H23 = system: NCI-H23
# SN12C = system: SN12C
# K562 = system: K562
# IGROV-1 = system: IGROV-1
# MDA-MB-435 = system: MDA-MB-435
# UACC-257 = system: UACC-257
# NCI-H460 = system: NCI-H460
# T47D = system: T47D
# RXF 393 = system: RXF 393
Structure (SMILES),GI50 (NCI/ADR-RES),GI50 (HCT-116),GI50 (SK-OV-3),GI50 (Malme-3M),GI50 (HCT-15),GI50 (PC-3),GI50 (Hs-578T),GI50 (NCI-H522),GI50 (HCC 2998),GI50 (SF-268),GI50 (NCI-H23),GI50 (SN12C),GI50 (K562),GI50 (IGROV-1),GI50 (MDA-MB-435),GI50 (UACC-257),GI50 (NCI-H460),GI50 (T47D),GI50 (RXF 393)
CSc1nc(NC2CC2)c2c(n1)Sc1nc3ccccc3n1N=C2,20.3 µM (inactive),9.73 µM (inactive),26.5 µM (inactive),16.7 µM (inactive),28.4 µM,29.5 µM (inactive),0.9 µM (active),16.9 µM (inactive),27.5 µM (inactive),17.1 µM (inactive),21.4 µM (inactive),8.55 µM (inactive),> 100 µM (inactive),42.6 µM (inactive),35.5 µM (inactive),41.3 µM (inactive),25.1 µM (inactive),–,–
CCC(O)c1ccc(/N=C/c2ccccc2O)cc1 (stereo not drawn),> 100 µM (inactive),74.1 µM (inactive),> 100 µM (inactive),> 100 µM (inactive),> 100 µM,> 100 µM (inactive),–,> 100 µM (inactive),> 100 µM (inactive),> 100 µM (inactive),> 100 µM (inactive),–,> 100 µM (inactive),> 100 µM (inactive),> 100 µM (inactive),–,> 100 µM (inactive),8.97 µM (inactive),> 100 µM (inactive)
CCN1C(=O)C(=C/C=C/C=C2/N(C)c3ccccc3C2(C)C)C(=O)N(CC)C1=S,> 100 µM (inactive),> 100 µM (inactive),36.3 µM (inactive),> 100 µM (inactive),> 100 µM,–,> 100 µM (inactive),> 100 µM (inactive),–,99.3 µM (inactive),> 100 µM (inactive),> 100 µM (inactive),58.6 µM (inactive),> 100 µM (inactive),> 100 µM (inactive),56.1 µM (inactive),38.9 µM (inactive),82.4 µM (inactive),39.6 µM (inactive)
CN(C)NC1=NS(=O)(=O)c2cc3c(=O)n(C)[nH]c3cc2S1,> 10 µM (inactive),> 10 µM (inactive),> 10 µM (inactive),> 10 µM (inactive),> 10 µM,> 10 µM (inactive),> 10 µM (inactive),> 10 µM (inactive),> 10 µM (inactive),> 10 µM (inactive),> 10 µM (inactive),> 10 µM (inactive),> 10 µM (inactive),> 10 µM (inactive),–,> 10 µM (inactive),> 10 µM (inactive),> 10 µM (inactive),> 10 µM (inactive)
O=C(O)CN1CCN2CCCCCCCCN(CC1)CCN(CC(=O)O)CC2,> 100 µM (inactive),> 100 µM (inactive),> 100 µM (inactive),> 100 µM (inactive),> 100 µM,> 100 µM (inactive),> 100 µM (inactive),64.6 µM (inactive),–,–,–,> 100 µM (inactive),> 100 µM (inactive),> 100 µM (inactive),> 100 µM (inactive),> 100 µM (inactive),> 100 µM (inactive),> 100 µM (inactive),–
CC1CCOc2ccc(cc2)/C=N\c2ccc(cc2)CCc2ccc(cc2)/N=C\c2ccc(cc2)OCC1,> 100 µM (inactive),> 100 µM (inactive),–,> 100 µM (inactive),> 100 µM,> 100 µM (inactive),> 100 µM (inactive),> 100 µM (inactive),> 100 µM (inactive),> 100 µM (inactive),> 100 µM (inactive),> 100 µM (inactive),> 100 µM (inactive),> 100 µM (inactive),> 100 µM (inactive),> 100 µM (inactive),> 100 µM (inactive),–,35.6 µM (inactive)
Nc1ncnc2c1ncn2C1OC(CO)C(O)C(O)C1O (stereo not drawn),> 100 µM (inactive),> 100 µM (inactive),–,> 100 µM (inactive),> 100 µM,> 100 µM (inactive),> 100 µM (inactive),> 100 µM (inactive),> 100 µM (inactive),> 100 µM (inactive),> 100 µM (inactive),> 100 µM (inactive),> 100 µM (inactive),> 100 µM (inactive),> 100 µM (inactive),> 100 µM (inactive),> 100 µM (inactive),–,–
CC1(C)CC2(C)CC1CC2NC(=O)CCN1CCOCC1 (stereo not drawn),–,> 100 µM (inactive),> 100 µM (inactive),> 100 µM (inactive),–,> 100 µM (inactive),> 100 µM (inactive),> 100 µM (inactive),> 100 µM (inactive),> 100 µM (inactive),> 100 µM (inactive),> 100 µM (inactive),> 100 µM (inactive),> 100 µM (inactive),> 100 µM (inactive),> 100 µM (inactive),> 100 µM (inactive),> 100 µM (inactive),> 100 µM (inactive)
CCOC(=O)c1cc(=O)c2cccc3c2n1CCS3,> 100 µM (inactive),> 100 µM (inactive),> 100 µM (inactive),–,> 100 µM,> 100 µM (inactive),> 100 µM (inactive),91.4 µM (inactive),–,> 100 µM (inactive),> 100 µM (inactive),> 100 µM (inactive),–,> 100 µM (inactive),> 100 µM (inactive),> 100 µM (inactive),83.9 µM (inactive),> 100 µM (inactive),–
